Data from US20220356452A1, “INDIRECT THREE-DIMENSIONAL CO-CULTURE OF DORMANT TUMOR CELLS AND USES THEREOF” (University of Delaware, priority 2019, published 2022).

Legend:
Format in all cases: cell-based
T47D cells [1] = experiment: EdU proliferation assay in 3D mono-culture or indirect co-culture with hFOB; details: T47D in 3D culture, day 15, vs untreated T47D mono-culture
Procedure: Indirect co-culture also enables facile switching to elucidate effects of transition from dormancy-promoting to growth-promoting microenvironments. Breast cancer cell proliferation assessment of over time culture with different conditions in 3D hydrogels: 5-ethynyl-2′-deoxyuridine (EdU) proliferation assay was measured for both T47D & BT474 cells at each time point during 15 days of culture. a & b, Quantification of proliferative (EdU^+ve) T47D & BT474 cells alone (control) or in indirect co-culture (#) with different BM niche cells (hFOB or hMSC). […] Significant differences assessed by Student's two-sided t-test, where differences shown for comparison between time points in mono and co-culture conditions (*p<0.05, **p<0.01; ***p<0.001). e, Quantitative analysis of metabolic activity with AlamarBlue assay of T47D cells after insert exchange at day 10 (fold change relative to day 3). Statistical differences determined with ANOVA with Tukey's multiple comparisons test, where differences are shown for comparison between co-culture conditions on day 15 and 20 (*p<0.05, **p<0.01; ***p<0.001). Data are shown represent mean±SD (n=3).
(§1) Significant differences assessed by ANOVA with Tukey's multiple comparisons test, where differences are shown for comparison between controls and multiple conditions at day 15 time point (*p<0.05, **p<0.01; ***p<0.001). Data are shown represent mean±SD (n=3).

T47D cells [2] = experiment: Quantitative analysis of LC3B+ve puncta cells (autophagy) by immunofluorescent staining in 3D culture; details: for autophagy (LC3B+ve puncta cells) with cytokine treatment: T47D in 3D culture, day 15, vs untreated T47D mono-culture
Description: Observations made with the in vitro model system shown here are consistent with in vivo observations in bone in a preclinical model for studying breast cancer dormancy at metastatic sites. a & b, Quantitative analysis of cells positive for LC3B^+ve puncta in images of immunofluorescent staining of autophagic protein (LC3B), cytoplasm (Phalloidin), and DNA (Hoechst) of T47D and BT474 cells in 3D mono-culture or indirect co-culture (#) with different BM niche cells (hFOB or hMSC) analyzed. Induction of autophagy observed in the indirect co-culture condition for T47D or BT474 with hFOB at Day 10 & 15, but not in mono-culture of T47D or co-culture of T47D with hMSC cells. […] In the case of T47D #hMSC insert exchange to #hFOB, induction of autophagy was observed upon insert exchange with similar observations for BT474 cells in these co-cultures. Significant differences assessed by Student's two-sided t-test, where differences shown for comparison between time points in co-culture conditions (*p<0.05, **p<0.01; ***p<0.001). Data are shown represent mean±SD (n=3).
as §1
Significant differences assessed by one-way ANOVA with Tukey's multiple comparisons test, where differences are shown for comparison between multiple time points (*p<0.05, **p<0.01; ***p<0.001). Data are shown represent mean±SD (n=3).

T47D cells [3] = experiment: Quantitative analysis of viable cells (viability/growth) of BCCs in 3D mono-culture or indirect co-culture with hFOB; details: T47D in 3D culture treated with recombinant human cytokines, vs untreated T47D mono-culture; day 15
Procedure: Significant differences were assessed by ANOVA with Tukey's multiple comparisons test, where differences are shown for comparison between controls and multiple conditions at day 15 time point (*p<0.05, **p<0.01; ***p<0.001). Data are shown represent mean±SD (n=3).

| Compound | proliferation rate (EdU+ve cells) with cytokine treatment (T47D cells [1]) | autophagy (LC3B+ve puncta cells) with cytokine treatment (T47D cells [2]) | growth (viable cells) with cytokine treatment (T47D cells [3]) | autophagy (LC3B+ve puncta cells) with autophagy inhibitor (T47D cells [2]; T47D #hFOB co-culture, 12.5 pg/mL, 2 doses (Day 6 and Day 14), observation over 25 days) |
| --- | --- | --- | --- | --- |
| TNFa | significantly decreased the proliferation rate | induced autophagosome formation | significant growth inhibition |  |
| MCP1: recombinant human MCP1 cytokine | significantly decreased the proliferation rate | induced autophagosome formation | significant growth inhibition |  |
| CCN(CCO)CCCC(C)Nc1ccnc2cc(Cl)ccc12 (stereo not shown) [HCQ, hydroxychloroquine, reference compound] |  |  |  | inhibition of autophagy |
